Measured values from US20100273769A1, “COMPOSITION AND METHOD FOR THE TREATMENT OF PARKINSON'S DISEASE” (priority 2009, published 2010).
Read-outs that look alike come from different tables or passages of the source.

How the values were obtained:
[1] = test system: R1441C LRRK2 transgenic C. elegans; test: Food-sensing (slowing) response in LRRK2 transgenic C. elegans; assay type: in vivo; conditions: Caenorhabditis elegans, 96 h; exposure through larval stages to adult stage day 4; read-out: Half-maximal restoration of the slowing response after food exposure
Method: Dopaminergic neurons in C. elegans are involved in food sensing behavior such that in the absence of food worms move more rapidly, as assessed by determining their bending frequency on an agar plate not supplied with food. In an established assay the animals are then exposed to food, and the difference in motility is recorded in the form of bending frequency [Sawin et al., Neuron 26, 619-631 (2000)]. […] In approximate synchrony with the dopaminergic neurodegeneration this slowing response is essentially eliminated after 4 days. […] The slowing response can be reconstituted to a substantial degree by supplementation with dopamine, confirming that the phenotype is due to loss of dopaminergic input (FIG. 5).
The clear-cut functional phenotype of this model can be used to determine the efficacy of LRRK2 kinase inhibitors and the accurate determination of their potency in a biological context. […] The potency is expressed as the half-maximal restoration of the slowing response. […]
The functional consequence of dopaminergic neurodegeneration was assayed using the food-sensing response resulting in a slowing of motility after food exposure as assessed by the frequency of body bending within 20 second intervals in groups of 10 animals [Sawin et al., Neuron 26, 619-631 (2000)]. […]

Cdk1 = Cdk1 (Homo sapiens, UniProt P06493); test: Kinase specificity, Cdk1; assay type: biochemical; conditions: 100 μM ATP
Chain of Cdk1 (P06493 whole entry, species assumed): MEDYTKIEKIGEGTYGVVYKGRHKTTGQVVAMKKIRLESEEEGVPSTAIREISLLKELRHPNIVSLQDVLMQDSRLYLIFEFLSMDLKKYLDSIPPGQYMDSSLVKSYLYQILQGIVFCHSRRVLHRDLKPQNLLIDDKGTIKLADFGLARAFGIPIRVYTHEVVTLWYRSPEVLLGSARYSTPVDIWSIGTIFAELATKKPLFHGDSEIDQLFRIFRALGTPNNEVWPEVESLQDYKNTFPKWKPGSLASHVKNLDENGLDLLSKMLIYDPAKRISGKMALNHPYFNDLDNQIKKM
Chain of Cdk1 (P14635 whole entry partner, species assumed): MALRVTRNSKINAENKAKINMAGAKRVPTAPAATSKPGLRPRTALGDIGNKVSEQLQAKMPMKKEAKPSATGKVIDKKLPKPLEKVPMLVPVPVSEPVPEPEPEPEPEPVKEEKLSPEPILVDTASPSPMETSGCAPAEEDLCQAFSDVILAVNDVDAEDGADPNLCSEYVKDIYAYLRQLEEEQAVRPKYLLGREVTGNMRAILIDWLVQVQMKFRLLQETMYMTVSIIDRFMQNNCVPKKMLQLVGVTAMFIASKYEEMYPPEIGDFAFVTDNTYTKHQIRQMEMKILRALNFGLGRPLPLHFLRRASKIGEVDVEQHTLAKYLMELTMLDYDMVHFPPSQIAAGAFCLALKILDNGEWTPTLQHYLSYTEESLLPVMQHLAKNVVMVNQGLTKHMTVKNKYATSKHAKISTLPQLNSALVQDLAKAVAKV

ERK2 = ERK2 (Homo sapiens, UniProt P28482); test: Kinase specificity, ERK2; assay type: biochemical; conditions: 100 μM ATP
Chain of ERK2 (P28482 whole entry, species assumed, the tested form may be a part): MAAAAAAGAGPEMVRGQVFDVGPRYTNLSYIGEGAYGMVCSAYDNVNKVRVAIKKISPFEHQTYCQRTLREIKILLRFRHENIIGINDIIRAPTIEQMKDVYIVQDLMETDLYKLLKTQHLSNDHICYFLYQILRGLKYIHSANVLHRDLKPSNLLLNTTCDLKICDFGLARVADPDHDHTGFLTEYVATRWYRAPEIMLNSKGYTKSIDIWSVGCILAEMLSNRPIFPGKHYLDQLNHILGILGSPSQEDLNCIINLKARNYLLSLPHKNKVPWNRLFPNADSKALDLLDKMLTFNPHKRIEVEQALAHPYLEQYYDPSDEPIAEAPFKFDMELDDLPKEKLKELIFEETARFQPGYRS

wildtype human LRRK2 = target: T1, wildtype human LRRK2 (Homo sapiens, UniProt Q5S007); test: Adapta assay, inhibition of wildtype human LRRK2 kinase fragment with LRRKtide; assay type: biochemical
T1 construct: human LRRK2 protein fragment encompassing amino acids 1326 to 2527; GST; made in house
T1 sequence (Q5S007 1326-2527): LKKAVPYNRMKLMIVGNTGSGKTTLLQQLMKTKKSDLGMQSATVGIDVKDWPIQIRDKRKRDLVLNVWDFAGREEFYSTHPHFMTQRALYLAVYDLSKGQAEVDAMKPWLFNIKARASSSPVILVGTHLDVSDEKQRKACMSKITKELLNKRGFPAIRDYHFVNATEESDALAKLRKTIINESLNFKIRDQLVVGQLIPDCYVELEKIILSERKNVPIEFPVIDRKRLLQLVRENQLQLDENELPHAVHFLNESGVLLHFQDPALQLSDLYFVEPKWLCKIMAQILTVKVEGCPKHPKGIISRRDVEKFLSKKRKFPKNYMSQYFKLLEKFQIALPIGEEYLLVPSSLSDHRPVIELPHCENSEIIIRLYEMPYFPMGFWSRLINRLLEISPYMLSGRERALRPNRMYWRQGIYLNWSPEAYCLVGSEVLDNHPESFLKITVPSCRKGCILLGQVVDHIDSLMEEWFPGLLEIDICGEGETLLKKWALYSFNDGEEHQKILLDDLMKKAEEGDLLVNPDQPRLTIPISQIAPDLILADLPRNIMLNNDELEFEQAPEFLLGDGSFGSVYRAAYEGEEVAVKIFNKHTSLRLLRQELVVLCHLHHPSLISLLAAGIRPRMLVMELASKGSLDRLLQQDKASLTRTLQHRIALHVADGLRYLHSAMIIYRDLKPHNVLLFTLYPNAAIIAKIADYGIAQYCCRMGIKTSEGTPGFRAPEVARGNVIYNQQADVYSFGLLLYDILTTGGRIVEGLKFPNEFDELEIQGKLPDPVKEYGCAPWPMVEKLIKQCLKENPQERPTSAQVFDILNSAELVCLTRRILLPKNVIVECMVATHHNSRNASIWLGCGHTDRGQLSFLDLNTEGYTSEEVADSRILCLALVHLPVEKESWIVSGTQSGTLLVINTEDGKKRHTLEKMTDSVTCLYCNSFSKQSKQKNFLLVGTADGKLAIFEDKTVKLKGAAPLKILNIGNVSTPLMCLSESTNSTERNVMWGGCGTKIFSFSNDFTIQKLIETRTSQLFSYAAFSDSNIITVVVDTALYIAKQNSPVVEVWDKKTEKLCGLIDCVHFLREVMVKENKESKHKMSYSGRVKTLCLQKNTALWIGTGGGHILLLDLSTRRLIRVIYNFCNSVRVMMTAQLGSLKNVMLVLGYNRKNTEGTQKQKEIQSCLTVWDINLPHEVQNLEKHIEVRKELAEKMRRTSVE

[2] = rodents, in vivo

## CNC(=O)[C@@]1(N)CC2OC1(C)n1c3ccccc3c3c4c(c5c6ccccc6n2c5c31)C(=O)NC4 (stereo partly shown) [Compound 3]
[1]
  EC50: 30 nM
Cdk1
  IC50: 17 nM
ERK2
  IC50: 26 nM
Wildtype human LRRK2; 100 μM ATP, FIG. 3A
  IC50 relative to nominal kinase concentration, wild-type LRRK2: substantially below the nominal concentration of the kinase itself
Wildtype human LRRK2; 100 μM ATP, read-out: LRRK2
  IC50: 1.1 nM
Wildtype human LRRK2; 100 microM ATP, read-out: LRRK2 inhibitory potency (essentially receptor-limited)
  IC50: ≤ 1 nM
[2]
  Plasma concentration sustained without detectable toxicity: 600 to 800 nM
